We go through 46 molecules from patent publication US8697694B2, “Substituted pyridine and pyrimidine derivatives and their use in treating viral infections” (priority 2008, dated 2014).

A value given as a limit tells only on which side of the number the result lay.

The subject of one assay is HCV replicon cells. The experiment in a line: Cell-based HCV replicon assay (replicon RNA level by real time PCR, Taqman). As to conditions: HCV replicon cells, replicon RNA level by real time PCR, harvested day 3; read-out: EC90 (μM) range. The protocol: Assays Cell-Based HCV Replicon Assay
To measure cell-based anti-HCV activity of the compounds of the present invention, replicon cells were seeded at 5000 cells/well in 96-well collagen I-coated Nunc plates in the presence of the compound of the invention. Various concentrations of a compound of the invention, typically in 10 serial 2-fold dilutions, were added to the assay mixture, the starting concentration of the compound ranging from 25 μM to 1 μM. The final concentration of DMSO was 0.5%, fetal bovine serum was 10%, in the assay media. Cells were harvested on day 3 by the addition of 1× cell lysis buffer (Ambion cat #8721). The replicon RNA level was measured using real time PCR (Taqman assay). The amplicon was located in 5B. The PCR primers were: 5B.2F, ATGGACAGGCGCCCTGA (SEQ. ID NO. 1); 5B.2R, […] (SEQ. ID NO. 2); the probe sequence was FAM-labeled CACGCCATGCGCTGCGG (SEQ. ID NO. 3). GAPDH RNA was used as endogenous control and was amplified in the same reaction as NS5B (multiplex PCR) using primers and VIC-labeled probe recommended by the manufacturer (PE Applied Biosystem). The real-time RT-PCR reactions were run on ABI PRISM 7900HT Sequence Detection System using the following program: 48′C for 30 min, 95° C. for 10 min, 40 cycles of 95° C. for 15 sec, 60° C. for 1 min. The ΔCT values (CT5B-CTGAPDH) were plotted against the concentration of test compound and fitted to the sigmoid dose-response model using GraphPad PRISM software. EC50 was defined as the concentration of inhibitor necessary to achieve ΔCT=1 over the projected baseline; EC90 the concentration necessary to achieve ΔCT=3.2 over the baseline. Alternatively, to quantitate the absolute amount of replicon RNA, a standard curve was established by including serially diluted T7 transcripts of replicon RNA in the Taqman assay. All Taqman reagents were from PE Applied Biosystems. Such an assay procedure was described in detail in e.g. Malcolm et al., Antimicrobial Agents and Chemotherapy 50: 1013-1020 (2006).
HCV Replicon assay data for compounds of the invention that were tested was obtained using the above method. Calculated EC90 values are reported for each compound in Table I as a falling within the following ranges: […]
In general terms: Replicon systems follow genome replication, usually without infectious particles.
For orientation: EC90 means the point of the concentration-response curve where the effect stands at 90%. On to `Cc1nc(NCC(F)(F)F)nc(N[C@@H]2C[C@H](C(C)O)[C@@H](O)[C@H]2O)c1-c1nc2ccccc2s1` (single isomer, unassigned) [Example 1648], for which the EC90 lay in the range of 0.5 to 5 µM.

Still in this assay, the particulars now being: Hepatitis C virus, 72 h, HCV replicon cells, harvested day 3, replicon RNA by real time PCR; given as number; read-out: EC90 (μM) range.
`Cc1nc(NCC2CC2)nc(N[C@@H]2C[C@H](CO)[C@@H](O)[C@H]2O)c1-c1cc2cc(OC(C)C)nc(C)c2o1` [Example 39]: the EC90 was determined as 0.1 µM.
The same measure, in the same setting: the result for `Cc1nc(NCC2CC2)nc(N[C@@H]2C[C@H](CO)[C@@H](O)[C@H]2O)c1-c1cc2cc(OCC(C)(C)C)nc(C)c2o1` [Example 45] reads above 25 µM.

Staying with this assay, now noted: Hepatitis C virus, 72 h, HCV replicon cells, harvested day 3, replicon RNA by real time PCR; reported as range class; read-out: EC90 (μM) range.
Consider `CN(C)c1ccc2nc(-c3c(Cl)nc(N)nc3N[C@@H]3C[C@H](CO)[C@@H](O)[C@H]3O)sc2c1` [Example 115], for which the EC90 is above 5 µM.
Same read-out and setting: in the case of `CCCOc1cc2cc(-c3c(C)nc(NCCOC)nc3N[C@@H]3C[C@H](CO)[C@@H](O)[C@H]3O)oc2cn1` [Example 60] it was above 5 µM; in that of `CC1(C)O[C@@H]2[C@@H](CO)C[C@@H](Nc3nc(N)nc(Cl)c3-c3nc4ccc(OCc5ccccc5)cc4s3)[C@@H]2O1` [Example 198], above 5 µM; in that of `CNC(=O)c1ccc2oc(-c3c(Cl)nc(N)nc3N[C@@H]3C[C@H](CO)[C@@H](O)[C@H]3O)cc2c1` [Example 172], above 5 µM.
On the same count and under the same terms, in the case of `CN(C)c1nc(Cl)c(-c2nc3ccccc3s2)c(N[C@@H]2C[C@H](CO)[C@@H](O)[C@H]2O)n1` [Example 408] it was below 0.5 µM; in that of `Cc1ccc2nc(-c3c(Cl)nc(N)nc3N[C@@H]3C[C@H](CO)[C@@H](O)[C@H]3O)oc2c1` [Example 191], 0.5 to 5 µM.
The same measure, in the same setting: in the case of `Nc1nc(Cl)c(-c2nc3ccc(Cl)cc3s2)c(N[C@@H]2C[C@H](CO)[C@@H](O)[C@H]2O)n1` [Example 188] it was above 5 µM; in that of `OC[C@H]1C[C@@H](Nc2nc(N3CCC3)nc(Cl)c2-c2nc3ccccc3s2)[C@H](O)[C@@H]1O` [Example 413], 0.5 to 5 µM; in that of `Nc1nc(Cl)c(-c2nc3cc(C(F)(F)F)ccc3s2)c(N[C@@H]2C[C@H](CO)[C@@H](O)[C@H]2O)n1` [Example 112], 0.5 to 5 µM.

The assay is the same for the next values; noted with them: Hepatitis C virus, 72 h, HCV replicon cells, harvested on day 3, replicon RNA by real time PCR; calculated EC90 reported as range class; read-out: EC90 (μM) range.
In the case of `Cc1cccnc1CNc1nc(C)c(-c2nc3ccccc3s2)c(N[C@@H]2C[C@H](CO)[C@@H](O)[C@H]2O)n1` [Example 499], the EC90 is below 0.5 µM.
Same read-out and setting: in the case of `CCc1cc2cc(-c3c(Cl)nc(NCC(C)C)nc3N[C@@H]3C[C@H](CO)[C@@H](O)[C@H]3O)oc2cn1` [Example 518] it was below 0.5 µM.
Still for that read-out and setting: in the case of `COc1cc(CNc2nc(C)c(-c3nc4ccccc4s3)c(N[C@@H]3C[C@H](CO)[C@H]4OC(C)(C)O[C@H]43)n2)cc(OC)c1OC` [Example 710] it was below 0.5 µM; in that of `CCOCCNc1nc(C)c(-c2cc3cc(CC)ncc3o2)c(N[C@@H]2C[C@H](CO)[C@@H](O)[C@H]2O)n1` [Example 515], below 0.5 µM; in that of `CCc1cc2cc(-c3c(C)nc(NCc4cc(C)on4)nc3N[C@@H]3C[C@H](CO)[C@H]4OC(C)(C)O[C@H]43)oc2cn1` [Example 702], below 0.5 µM.
Still for that read-out and setting: the result for `CCOCCNc1nc(C)c(-c2nc(C)c(C)s2)c(N[C@@H]2C[C@H](CO)[C@@H](O)[C@H]2O)n1` [Example 137] reads 0.5 to 5 µM.
In the case of `OC[C@H]1C[C@@H](Nc2nc(NC3CCOCC3)nc(Cl)c2-c2nc3ccccc3s2)[C@H](O)[C@@H]1O` [Example 424], the EC90 is below 0.5 µM.
As for `Cc1nc(NCc2cccc(F)c2)nc(N[C@@H]2C[C@H](CO)[C@H]3OC(C)(C)O[C@H]32)c1-c1nc2ccccc2s1` [Example 243], the EC90 was below 0.5 µM.
As for `CCCNc1nc(C)c(-c2nc3ccccc3s2)c(N[C@@H]2C[C@H](CO)[C@@H](O)[C@H]2O)n1` [Example 422], the EC90 is below 0.5 µM.
`CCCCCNc1nc(Cl)c(-c2cc3cc(C)nc(C)c3o2)c(N[C@@H]2C[C@H](CO)[C@@H](O)[C@H]2O)n1` [Example 450]: the EC90 is below 0.5 µM.
Still for that read-out and setting: in the case of `COc1cc(CNc2nc(C)c(-c3cc4cc(OC)nc(C)c4o3)c(N[C@@H]3C[C@H](CO)[C@@H](O)[C@H]3O)n2)cc(OC)c1` [Example 348] it was below 0.5 µM; in that of `Cc1nc(NCc2cccc[n+]2[O-])nc(N[C@@H]2C[C@H](CO)[C@H]3OC(C)(C)O[C@H]32)c1-c1nc2ccccc2s1` [Example 481], above 5 µM; in that of `Cc1nc(NCc2cc3ccccc3s2)nc(N[C@@H]2C[C@H](CO)[C@H]3OC(C)(C)O[C@H]32)c1-c1nc2ccccc2s1` [Example 475], 0.5 to 5 µM.

Staying with this assay, now noted: Hepatitis C virus, 72 h, HCV replicon cells, replicon RNA level by real time PCR (Taqman), harvested on day 3; calculated EC90 reported as range class; read-out: EC90 (μM) range.
For `Cc1nc(NCc2cccc(N(C)C)c2)nc(N[C@@H]2C[C@H](CO)[C@H]3OC(C)(C)O[C@H]32)c1-c1nc2ccccc2s1` [Example 1105], the EC90 is 0.5 to 5 µM.
Consider `CCCCCCNc1nc(C)c(-c2nc3ccccc3s2)c(N[C@@H]2C[C@H](CO)[C@H]3OC(C)(C)O[C@H]32)n1` [Example 1117], for which the EC90 was above 5 µM.
The same measure, in the same setting: the result for `CCc1cc2cc(-c3c(C)nc(NC)nc3N[C@@H]3C[C@H](CO)[C@@H](O)[C@H]3O)oc2cn1` [Example 527] reads below 0.5 µM; that for `Cc1nc(NCC(C)(C)C)nc(N[C@@H]2C[C@H](CO)[C@@H](O)[C@H]2O)c1-c1nc2c(C)nccc2s1` [Example 1319], below 0.5 µM.
In the case of `Cc1nc(NC2CC2)nc(N[C@@H]2C[C@H](CO)[C@@H](O)[C@H]2O)c1-c1nc2cnccc2s1` [Example 534], the concentration for an effect of 90% (EC90) is below 0.5 µM.
For `Cc1ccc([C@@H](C)Nc2nc(C)c(-c3ccc4ccccc4n3)c(N[C@@H]3C[C@H](CO)[C@@H](O)[C@H]3O)n2)cc1` [Example 1323], the EC90 was above 5 µM.
As to `Cc1nc(NCC2CC2)nc(N[C@@H]2C[C@H](CO)[C@H]3OC(C)(C)O[C@H]32)c1-c1nc2cc(OC(F)F)c(OC(F)F)cc2s1` [Example 1005], the EC90 is above 5 µM.
On the same count and under the same terms, in the case of `Cc1nc(N(C)Cc2ccccc2)nc(N[C@@H]2C[C@H](CO)[C@@H](O)[C@H]2O)c1-c1nc2ccccc2s1` [Example 1116] it was above 5 µM; in that of `Cc1nc(Nc2ccncc2)nc(N[C@@H]2C[C@H](CO)[C@@H](O)[C@H]2O)c1-c1nc2ccccc2s1` [Example 1051], 0.5 to 5 µM; in that of `Cc1nc(NCC2CC2)nc(N[C@@H]2C[C@H](CO)[C@@H](O)[C@H]2O)c1-c1nc2ccccc2o1` [Example 528], 0.5 to 5 µM.
On the same count and under the same terms, the result for `Cc1nc(Nc2cccc(F)c2)nc(N[C@@H]2C[C@H](CO)[C@@H](O)[C@H]2O)c1-c1nc2ccccc2s1` [Example 1042] reads above 5 µM.
With `CCc1nccc2sc(-c3c(C)nc(NCC(C)(C)C)nc3N[C@@H]3C[C@H](CO)[C@@H](O)[C@H]3O)nc12` [Example 1334], the EC90 is below 0.5 µM.
Still for that read-out and setting: in the case of `Cc1nc(NCc2cccc(CN(C)C)c2)nc(N[C@@H]2C[C@H](CO)[C@H]3OC(C)(C)O[C@H]32)c1-c1nc2ccccc2s1` [Example 1118] it was above 5 µM.

The same assay, now with this note: Hepatitis C virus, 72 h, HCV replicon cells, replicon RNA level by real time PCR, harvested day 3; read-out: EC90 (μM) range.
Regarding `Cc1nc(NCC2CC2)nc(NC2CC(CO)(CO)C2)c1-c1nc2ccccc2s1` [Example 1610], the EC90 lay in the range of 0.5 to 5 µM.
In the case of `Cc1ccc([C@@H](C)Nc2nc(C)c(-c3nc4ccccc4o3)c(N[C@@H]3C[C@H](CO)[C@@H](O)[C@H]3O)n2)cc1` [Example 1360], the EC90 lay within 0.5 to 5 µM.
Same read-out and setting: the result for `CCCc1nccc2sc(-c3c(C)nc(N[C@H](C)C4CC4)nc3N[C@@H]3C[C@H](CNC(=O)OC)[C@@H](O)[C@H]3O)nc12` [Example 1388] reads below 0.5 µM; that for `CCOCCNc1nc(C)c(-c2nc3c(C)nc(OCC)cc3s2)c(N[C@@H]2C[C@H](CO)[C@@H](O)[C@H]2O)n1` [Example 1376], below 0.5 µM; that for `Cc1nc(N[C@H](C)c2ccc(OC(F)(F)F)cc2)nc(N[C@@H]2C[C@H](CO)[C@@H](O)[C@@]2(C)O)c1-c1nc2cnccc2s1` [Example 1397], below 0.5 µM.
In the case of `Cc1nc(NCC(F)(F)F)nc(N[C@@H]2C[C@H](C(C)(C)O)[C@@H](O)[C@H]2O)c1-c1nc2ccccc2s1` [Example 1640], the EC90 lay in the range of 0.5 to 5 µM.
Same read-out and setting: the result for `Cc1nc(C#N)nc(N[C@@H]2C[C@H](CO)[C@@H](O)[C@H]2O)c1-c1nc2ccccc2s1` [Example 1904] reads above 5 µM.
In the case of `Cc1nc(NC2CC2)nc(N[C@@H]2C[C@H](CO)[C@@H](O)[C@H]2O)c1-c1nc2c(CC(C)C)nccc2s1` [Example 1537], the EC90 was below 0.5 µM.
